# Values of other authors, collected in patent publication US20060270013A1 (priority 2003, published 2006).
# Target: NADPH-dependent benzil reductase (Bacillus cereus, UniProt Q8RJB2)
# Settings: substrate of benzil reductase; Maruyama et al. 2002
# Sequence of NADPH-dependent benzil reductase (Q8RJB2 whole entry): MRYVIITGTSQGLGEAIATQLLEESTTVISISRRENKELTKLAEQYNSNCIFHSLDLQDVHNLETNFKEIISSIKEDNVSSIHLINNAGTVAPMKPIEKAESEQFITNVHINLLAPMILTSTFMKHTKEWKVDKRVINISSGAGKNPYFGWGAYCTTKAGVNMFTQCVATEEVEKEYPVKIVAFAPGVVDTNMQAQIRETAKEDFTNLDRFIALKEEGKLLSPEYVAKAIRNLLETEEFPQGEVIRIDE
SMILES,Km,kcat
O=Cc1ccc([N+](=O)[O-])cc1 [p-nitrobenzaldehyde],261 µM,0.02 s⁻¹
"CC(=O)C(=O)c1ccccc1 [1-phenyl-1,2-propanedione]",42 µM,2.75 s⁻¹
